{"source": "patent US20050197350A1", "about": "“Novel quinoline, tetrahydroquinazoline, and pyrimidine derivatives and methods of treatment related to the use thereof” (TAISHO PHARMACEUTICAL CO., LTD., priority 2003, published 2005)"}
{"system": "MCH receptors", "assay": "MCH receptor activity class (method not given)", "settings": "not given"}
{"smiles": "Cc1ccc(CNC(=O)[C@H]2CC[C@@H](Nc3nc(C)cc(N(C)C)n3)CC2)cc1", "note": "[Example 2574, cis-4-{[4-(dimethylamino)-6-methylpyrimidin-2-yl]amino}-N-(4-methylbenzyl)cyclohexanecarboxamide]", "class": 1}
{"system": "MCH receptors", "assay": "MCH receptor activity class (method not given)", "settings": "MCH receptor activity class 1-3 (percent of control at 10^-7 M or IC50)"}
{"smiles": "Cc1cc(Br)cc(C)c1NC(=O)NC[C@H]1CC[C@@H](Nc2cc(N(C)C)c3ccccc3n2)CC1", "note": "[compound 2390, N-(4-bromo-2,6-dimethylphenyl)-N′-[(cis-4-{[4-(dimethylamino)quinolin-2-yl]amino}cyclohexyl)methyl]urea]", "class": "1 (Class 1: The value of percent of control at 10^−7 M was less than 40% or the value of IC50 was less than 50 nM.)"}
{"smiles": "CCCc1ccccc1NC(=O)NC[C@H]1CC[C@@H](Nc2cc(N(C)C)c3ccccc3n2)CC1", "note": "[compound 2382]", "class": "3 (Class 3 The value of percent of control at 10^−7 M was more than 60% or the value of IC50 was more than 200 nM.)"}
{"system": "MCH receptors", "assay": "MCH receptor activity class (method not given)", "settings": "MCH receptor; class by percent of control at 10^-7 M or IC50"}
{"smiles": "CCCCCCCCCCc1ccc(NC(=S)N[C@H]2CC[C@@H](Nc3nc4c(c(N(C)C)n3)CCCC4)CC2)cc1", "note": "[compound 2048]", "class": "3 (Class 3 The value of percent of control at 10^−7 M was more than 60% or the value of IC50 was more than 200 nM.)"}
{"smiles": "CCc1cccc(NC(=S)N[C@H]2CC[C@@H](Nc3nc4c(c(N(C)C)n3)CCCC4)CC2)c1", "note": "[compound 2042]", "class": "3 (Class 3 The value of percent of control at 10^−7 M was more than 60% or the value of IC50 was more than 200 nM.)"}
{"smiles": "CN(C)c1nc(N[C@H]2CC[C@@H](NC(=O)Nc3ccc(OC(F)(F)F)cc3)CC2)nc2c1CCCC2", "note": "[compound 1912]", "class": "3 (Class 3 The value of percent of control at 10^−7 M was more than 60% or the value of IC50 was more than 200 nM.)"}
{"system": "MCH receptors", "assay": "MCH receptor activity class (method not given)", "settings": "activity class 1-3: percent of control at 10^-7 M or IC50"}
{"smiles": "CN(C)c1cc(N[C@H]2CC[C@@H](NC(=O)Oc3ccccc3)CC2)nc2ccccc12", "note": "[compound 1552]", "class": "3 (Class 3 The value of percent of control at 10^−7 M was more than 60% or the value of IC50 was more than 200 nM.)"}
{"smiles": "CN(C)c1cc(N[C@H]2CC[C@@H](NC(=O)OCCOCc3ccccc3)CC2)nc2ccccc12", "note": "[compound 1539]", "class": "3 (Class 3 The value of percent of control at 10^−7 M was more than 60% or the value of IC50 was more than 200 nM.)"}
{"smiles": "CN(C)c1nc(N[C@H]2CC[C@@H](NC(=O)NCc3ccccc3Cl)CC2)nc2c1CCCC2", "note": "[compound 1675, N-(2-chlorobenzyl)-N′-(cis-4-{[4-(dimethylamino)-5,6,7,8-tetrahydroquinazolin-2-yl]amino}cyclohexyl)urea]", "class": "2 (Class 2: The value of percent of control at 10^−7 M was from 40% to 60% or the value of IC′50 was from 50 nM to 200 nM.)"}
{"smiles": "COCCOC(=O)N[C@H]1CC[C@@H](Nc2nccc(N(C)C)n2)CC1", "note": "[compound 1625]", "class": "3 (Class 3 The value of percent of control at 10^−7 M was more than 60% or the value of IC50 was more than 200 nM.)"}
{"system": "MCH receptors", "assay": "MCH receptor activity class (method not given)", "settings": "activity class per percent of control at 10^-7 M or IC50"}
{"smiles": "COc1cc(CNC[C@H]2CC[C@@H](Nc3cc(N(C)C)c4ccccc4n3)CC2)cc(OC)c1", "note": "[compound 1138]", "class": "3 (Class 3 The value of percent of control at 10^−7 M was more than 60% or the value of IC50 was more than 200 nM.)"}
{"system": "MCH receptors", "assay": "MCH receptor activity class (method not given)", "settings": "class 1-3 by percent of control at 10^-7 M or IC50"}
{"smiles": "CN(C)c1nc(N[C@H]2CC[C@@H](NC(=O)c3cc(C(F)(F)F)ccc3F)CC2)nc2c1CCCC2", "note": "[compound 501]", "class": "3 (Class 3 The value of percent of control at 10^−7 M was more than 60% or the value of IC50 was more than 200 nM.)"}
{"system": "MCH receptors", "assay": "MCH receptor activity class (method not given)", "settings": "class by percent of control at 10^-7 M or IC50"}
{"smiles": "CN(C)c1cc(N[C@H]2CC[C@@H](NC(=O)C(CC(=O)c3ccc(Cl)cc3)SCc3ccc(Cl)cc3)CC2)nc2ccccc12", "note": "(relative stereo) [compound 741]", "class": "3 (Class 3 The value of percent of control at 10^−7 M was more than 60% or the value of IC50 was more than 200 nM.)"}
{"smiles": "COc1ccc(F)c(CNC[C@H]2CC[C@@H](Nc3nccc(N(C)C)n3)CC2)c1", "note": "[compound 1285]", "class": "3 (Class 3 The value of percent of control at 10^−7 M was more than 60% or the value of IC50 was more than 200 nM.)"}
{"smiles": "CCSc1ncccc1C(=O)NC[C@H]1CC[C@@H](Nc2nccc(N(C)C)n2)CC1", "note": "[compound 381]", "class": "3 (Class 3 The value of percent of control at 10^−7 M was more than 60% or the value of IC50 was more than 200 nM.)"}
{"smiles": "CN(C)c1nc(N[C@H]2CC[C@@H](NC(=O)Nc3ccc4ccccc4c3)CC2)nc2c1CCCC2", "note": "[compound 1863]", "class": "3 (Class 3 The value of percent of control at 10^−7 M was more than 60% or the value of IC50 was more than 200 nM.)"}
{"smiles": "Cc1ccc(C(=O)NC[C@H]2CC[C@@H](Nc3nccc(N(C)C)n3)CC2)cc1", "note": "[compound 396]", "class": "3 (Class 3 The value of percent of control at 10^−7 M was more than 60% or the value of IC50 was more than 200 nM.)"}
{"smiles": "CN(C)c1ccnc(N[C@H]2CC[C@@H](NC(=O)c3ccc(Cl)s3)CC2)n1", "note": "[compound 816]", "class": "3 (Class 3 The value of percent of control at 10^−7 M was more than 60% or the value of IC50 was more than 200 nM.)"}
{"smiles": "Cc1ccc(C(=O)NC[C@H]2CC[C@@H](Nc3nc4c(c(N(C)C)n3)CCCC4)CC2)cc1", "note": "[compound 613]", "class": "3 (Class 3 The value of percent of control at 10^−7 M was more than 60% or the value of IC50 was more than 200 nM.)"}
{"smiles": "CN(C)c1ccnc(N[C@H]2CC[C@@H](CNC(=O)c3cc(F)cc(C(F)(F)F)c3)CC2)n1", "note": "[compound 383]", "class": "3 (Class 3 The value of percent of control at 10^−7 M was more than 60% or the value of IC50 was more than 200 nM.)"}
{"smiles": "CN(C)c1ccnc(N[C@H]2CC[C@@H](NC(=O)Cc3c(Cl)ccc(Cl)c3Cl)CC2)n1", "note": "[compound 813]", "class": "3 (Class 3 The value of percent of control at 10^−7 M was more than 60% or the value of IC50 was more than 200 nM.)"}
{"smiles": "CC(C)c1ccccc1NC(=O)N[C@H]1CC[C@@H](Nc2cc(N(C)C)c3ccccc3n2)CC1", "note": "[compound 2110]", "class": "3 (Class 3 The value of percent of control at 10^−7 M was more than 60% or the value of IC50 was more than 200 nM.)"}
{"smiles": "CCCc1c(CNC[C@H]2CC[C@@H](Nc3cc(N(C)C)c4ccccc4n3)CC2)cnn1-c1ccc(Cl)cc1", "note": "[compound 1479]", "class": "1 (Class 1: The value of percent of control at 10^−7 M was less than 40% or the value of IC50 was less than 50 nM.)"}
{"smiles": "CN(C)c1ccnc(N[C@H]2CC[C@@H](NC(=O)Cc3ccc(Oc4ccccc4)cc3)CC2)n1", "note": "[compound 868]", "class": "3 (Class 3 The value of percent of control at 10^−7 M was more than 60% or the value of IC50 was more than 200 nM.)"}
{"smiles": "CC(=O)OC(C(=O)N[C@H]1CC[C@@H](Nc2nccc(N(C)C)n2)CC1)c1ccccc1", "note": "(relative stereo) [compound 310]", "class": "3 (Class 3 The value of percent of control at 10^−7 M was more than 60% or the value of IC50 was more than 200 nM.)"}
{"smiles": "Cc1ccc([N+](=O)[O-])cc1NC(=O)N[C@H]1CC[C@@H](Nc2cc(N(C)C)c3ccccc3n2)CC1", "note": "[compound 2145]", "class": "3 (Class 3 The value of percent of control at 10^−7 M was more than 60% or the value of IC50 was more than 200 nM.)"}
{"smiles": "COc1ccc(CN[C@H]2CC[C@@H](Nc3nccc(N(C)C)n3)CC2)c(OC)c1OC", "note": "[compound 1215]", "class": "3 (Class 3 The value of percent of control at 10^−7 M was more than 60% or the value of IC50 was more than 200 nM.)"}
{"smiles": "COc1cccc(C(=O)N[C@H]2CC[C@@H](Nc3nccc(N(C)C)n3)CC2)c1", "note": "[compound 238, N-(cis-4-{[4-(dimethylamino)pyrimidin-2-yl]amino}cyclohexyl)-3-methoxybenzamide]", "class": "2 (Class 2: The value of percent of control at 10^−7 M was from 40% to 60% or the value of IC′50 was from 50 nM to 200 nM.)"}
{"smiles": "Cc1cccc(C)c1NC(=O)N[C@H]1CC[C@@H](Nc2nccc(N(C)C)n2)CC1", "note": "[compound 2180]", "class": "3 (Class 3 The value of percent of control at 10^−7 M was more than 60% or the value of IC50 was more than 200 nM.)"}
{"smiles": "Cc1noc(-c2ccccc2)c1NC(=O)NC[C@H]1CC[C@@H](Nc2nc3c(c(N(C)C)n2)CCCC3)CC1", "note": "[compound 2483]", "class": "3 (Class 3 The value of percent of control at 10^−7 M was more than 60% or the value of IC50 was more than 200 nM.)"}
{"smiles": "Cc1ccc(C(=O)N[C@H]2CC[C@@H](Nc3nccc(N(C)C)n3)CC2)c(F)c1F", "note": "[compound 278]", "class": "3 (Class 3 The value of percent of control at 10^−7 M was more than 60% or the value of IC50 was more than 200 nM.)"}
{"smiles": "Cc1cc(C)c(C(=O)C(=O)N[C@H]2CC[C@@H](Nc3nccc(N(C)C)n3)CC2)c(C)c1", "note": "[compound 914, N-(cis-4-{[4-(dimethylamino)pyrimidin-2-yl]amino}cyclohexyl)-2-mesityl-2-oxoacetamide]", "class": "2 (Class 2: The value of percent of control at 10^−7 M was from 40% to 60% or the value of IC′50 was from 50 nM to 200 nM.)"}
{"smiles": "CN(C)c1cc(N[C@H]2CC[C@@H](CNC(=O)c3c(F)ccc(F)c3Cl)CC2)nc2ccccc12", "note": "[compound 236]", "class": "3 (Class 3 The value of percent of control at 10^−7 M was more than 60% or the value of IC50 was more than 200 nM.)"}
{"smiles": "CC(C)c1cc(Br)c(NC(=O)N[C@H]2CC[C@@H](Nc3nccc(N(C)C)n3)CC2)c(Br)c1", "note": "[compound 2252]", "class": "2 (Class 2: The value of percent of control at 10^−7 M was from 40% to 60% or the value of IC′50 was from 50 nM to 200 nM.)"}
{"smiles": "CN(C)c1nc(N[C@H]2CC[C@@H](NCc3c[nH]nc3-c3ccc(F)cc3)CC2)nc2c1CCCC2", "note": "[compound 1359]", "class": "1 (Class 1: The value of percent of control at 10^−7 M was less than 40% or the value of IC50 was less than 50 nM.)"}
{"system": "MCH receptors", "assay": "MCH receptor activity class (method not given)", "settings": "class by percent of control at 10^−7 M or IC50"}
{"smiles": "Cc1cc(N(C)C)nc(N[C@H]2CC[C@@H](C(=O)NCc3ccc(Br)cc3F)CC2)n1", "note": "[compound 2821, cis-N-(4-bromo-2-fluorobenzyl)-4-{[4-(dimethylamino)-6-methylpyrimidin-2-yl]amino}cyclohexanecarboxamide]", "class": "1 (Class 1: The value of percent of control at 10^−7 M was less than 40% or the value of IC50 was less than 50 nM.)"}
{"smiles": "Cc1cnc(N[C@H]2CC[C@@H](CNC(=O)c3ccc(Br)cc3)CC2)nc1N(C)C", "note": "[compound 2702]", "class": "1 (Class 1: The value of percent of control at 10^−7 M was less than 40% or the value of IC50 was less than 50 nM.)"}
{"smiles": "Cc1cc(N(C)C)nc(NC[C@H]2CC[C@@H](NC(=O)c3ccc(Br)c(C)c3)CC2)n1", "note": "[compound 2745, 4-bromo-N-[cis-4-({[4-(dimethylamino)-6-methylpyrimidin-2-yl]amino}methyl)cyclohexyl]-3-methylbenzamide]", "class": "2 (Class 2: The value of percent of control at 10^−7 M was from 40% to 60% or the value of IC′50 was from 50 nM to 200 nM.)"}
